Structures can show the parent of a compound that is named as a salt.

By IC50 is commonly meant the concentration at which inhibition is half-maximal.

This assay addresses T1, human NCX1 (Homo sapiens, UniProt P32418).
T1 construct: expressed in transfected cells
Put plainly: NCX1 inhibition, reverse mode (Ca2+ influx into cells), FLIPR Fluo-4 assay. In kind it is cell-based. The following applies: inhibition of NCX1 in reverse mode (Ca2+ influx into cells); read-out: NCX1rv IC50. In a few lines:
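CHO cells stably expressing human NCX1 were loaded with 2 µM Fluo-4 AM for 80 min at room temperature, then preincubated with compound for 45 min at 16 °C in pH 7.4 HEPES buffer (3.5 mM CaCl2, 2.5 mM probenecid). Reverse-mode Ca2+ influx was triggered by 20 µM final gramicidin and read at 520 nm on FLIPR. IC50 came from % inhibition of max−min fluorescence.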
As to `O=C(NCCO)c1cnc(Oc2ccc3c(c2)CCC(c2ccccc2)O3)s1` (stereo not drawn) [compound 295], the IC50 came out at 400 nM.
For `Cc1cccc(C)c1C1CCc2cc(Oc3ncc(C(=O)N(C)C)s3)ccc2O1` (stereo not drawn) [compound 338], the IC50 came to 8700 nM.
Consider `CCCNC(=O)c1csc(Oc2ccc3c(c2)CC[C@@H](c2ccccc2)O3)n1` [compound 351], for which the concentration for half-maximal inhibition (IC50) came to 110 nM.
In the case of `C[C@@H](NC(=O)c1cnc(Oc2ccc3c(c2)CC[C@@H](c2ccccc2)O3)s1)C(=O)O` [compound 194], the IC50 came out at 700 nM.
In the case of `COc1c(F)cccc1C1CCc2cc(Oc3ncc(C(=O)NCCO)s3)ccc2O1` (stereo not drawn) [compound 367] it was 270 nM; in that of `O=C(NCc1ccno1)c1cnc(Oc2ccc3c(c2)CC[C@@H](c2ccccc2)O3)s1` [compound 171], 100 nM.
As to `O=C(CN1C(=O)CNC1=O)NCc1cnc(Oc2ccc3c(c2)CCC(c2ccccc2)O3)s1` (stereo not drawn) [compound 95], the IC50 was 600 nM.
As to `c1ccc(C2CCc3cc(Oc4ncc(CNC5CCC5)s4)ccc3O2)cc1` (stereo not drawn) [compound 110], the IC50 was determined as 200 nM.
In the case of `O=C(NCc1cnc(Oc2ccc3c(c2)CCC(c2ccccc2)O3)s1)[C@@H]1CCCN1` (stereo partly drawn) [compound 341, hydrochloride], the 50% inhibitory concentration (IC50) came out at 900 nM.
Take `CCn1ccc(C(=O)NCc2cnc(Oc3ccc4c(c3)CCC(c3ccccc3)O4)s2)n1` (stereo not drawn) [compound 93]: the IC50 was 500 nM.
With `Cc1cc(C)nc(CNC(=O)c2cnc(Oc3ccc4c(c3)CCC(c3ccccc3)O4)s2)n1` (stereo not drawn) [compound 33], the IC50 amounted to 200 nM.
In the case of `CC[C@H](C)[C@@H](CO)NC(=O)c1cnc(Oc2ccc3c(c2)CC[C@@H](c2ccccc2)O3)s1` [compound 208] it was 400 nM; in that of `Cc1ncsc1CCNC(=O)c1cnc(Oc2ccc3c(c2)CCC(c2ccccc2)O3)s1` (stereo not drawn) [compound 7], 300 nM; in that of `CCCNC(=O)c1cnc(Oc2ccc3c(c2)CC[C@@H](c2ccccc2)O3)s1` [compound 281], 600 nM.
`CO[C@H]1CNC[C@@H]1NC(=O)c1cnc(Oc2ccc3c(c2)CC[C@@H](c2ccccc2)O3)s1` [compound 254]: the concentration for half-maximal inhibition (IC50) was 400 nM.
On to `O=C(c1cnc(Oc2ccc3c(c2)CCC(c2cccnc2)O3)s1)N1CCC[C@H]1CO` (stereo partly drawn) [compound 259], for which the half-inhibitory concentration (IC50) was 1800 nM.
Turning to `CCC(C)(C)NCc1cnc(Oc2ccc3c(c2)CCC(c2ccccc2)O3)s1` (stereo not drawn) [compound 112], the half-inhibitory concentration (IC50) was 300 nM.
As for `Cc1noc(C)c1CCC(=O)NCc1cnc(Oc2ccc3c(c2)CC[C@@H](c2ccccc2)O3)s1` [compound 296], the 50% inhibitory concentration (IC50) is 400 nM.
With `C[C@H](O)[C@H](CO)NC(=O)c1cnc(Oc2ccc3c(c2)CC[C@@H](c2ccccc2)O3)s1` [compound 202], the concentration for half-maximal inhibition (IC50) worked out at 200 nM.
Regarding `CN(C)c1cc(CNC(=O)c2cnc(Oc3ccc4c(c3)CCC(c3ccccc3)O4)s2)ccn1` (stereo not drawn) [compound 29], the concentration for half-maximal inhibition (IC50) was found to be 100 nM.
Under `Nc1cc(C(=O)NCc2cnc(Oc3ccc4c(c3)CCC(c3ccccc3)O4)s2)ccn1` (stereo not drawn) [compound 85] stands 10900 nM.
For the molecule `O=C(N[C@@H](Cc1ccccc1)C(=O)O)c1cnc(Oc2ccc3c(c2)CCC(c2cccnc2)O3)s1` (stereo partly drawn) [compound 271], the 50% inhibitory concentration (IC50) is 12100 nM.
With `O=C(Cn1cccn1)NCc1cnc(Oc2ccc3c(c2)CCC(c2ccccc2)O3)s1` (stereo not drawn) [compound 92], the IC50 was 1100 nM.
With `Cc1c(C(=O)NCc2cnc(Oc3ccc4c(c3)CCC(c3ccccc3)O4)s2)cnn1C` (stereo not drawn) [compound 71], the concentration for half-maximal inhibition (IC50) is 700 nM.
Regarding `O=C(NCc1ccnc(N2CCOCC2)c1)c1cnc(Oc2ccc3c(c2)CCC(c2ccccc2)O3)s1` (stereo not drawn) [compound 28], the half-inhibitory concentration (IC50) is 200 nM.
For `Cn1cc(S(=O)(=O)NCc2cnc(Oc3ccc4c(c3)CCC(c3ccccc3)O4)s2)cn1` (stereo not drawn) [compound 129], the IC50 was determined as 900 nM.
For `CC(C)(NC(=O)c1cnc(Oc2ccc3c(c2)CC[C@@H](c2ccccc2)O3)s1)C(=O)O` [compound 193], the half-maximal inhibitory concentration (IC50) was 600 nM.
In the case of `Cc1cc(C(=O)NCc2cnc(Oc3ccc4c(c3)CCC(c3ccccc3)O4)s2)nc(C)n1` (stereo not drawn) [compound 91] it was 5300 nM; in that of `Cc1cc(C(=O)NCc2cnc(Oc3ccc4c(c3)CCC(c3ccccc3)O4)s2)ccn1` (stereo not drawn) [compound 82], 400 nM.
In the case of `FC(F)(F)CNCc1cnc(Oc2ccc3c(c2)CCC(c2ccccc2)O3)s1` (stereo not drawn) [compound 107] it was 200 nM; in that of `O=C(NC(CCO)C1CC1)c1cnc(Oc2ccc3c(c2)CCC(c2cccnc2)O3)s1` (stereo not drawn) [compound 252], 3200 nM.
As for `c1ccc(C2CCc3cc(Oc4ncc(CN5C6CCC5CC6)s4)ccc3O2)cc1` (stereo not drawn) [compound 121], the IC50 was found to be 600 nM.
In the case of `CC(Cc1ccccc1)(NC(=O)c1cnc(Oc2ccc3c(c2)CC[C@@H](c2ccccc2)O3)s1)C(=O)O` (stereo partly drawn) [compound 233], the 50% inhibitory concentration (IC50) stood at 800 nM.
As for `c1ccc(C2CCc3cc(Oc4ncc(CNCCn5cccn5)s4)ccc3O2)cc1` (stereo not drawn) [compound 149], the concentration for half-maximal inhibition (IC50) was 300 nM.
For `Cc1c(CNC(=O)c2cnc(Oc3ccc4c(c3)CC[C@H](c3ccccc3)O4)s2)cnn1C` [compound 63], the half-inhibitory concentration (IC50) was 600 nM.
As to `Cc1ccccc1C1CCc2cc(Oc3ncc(C(=O)N4CC[C@@H](O)C4)s3)ccc2O1` (stereo partly drawn) [compound 300], the IC50 worked out at 200 nM.
Take `O=C(NCCO)c1cnc(Oc2ccc3c(c2)CC[C@@H](c2ccccc2)O3)s1` [compound 204]: the 50% inhibitory concentration (IC50) turned out to be 100 nM.
Turning to `O=C(NCc1ccno1)c1cnc(Oc2ccc3c(c2)CCC(c2cncc(F)c2)O3)s1` (stereo not drawn) [compound 248], the IC50 was 800 nM.
Take `O=C(NCc1cn2ccccc2n1)c1cnc(Oc2ccc3c(c2)CCC(c2ccccc2)O3)s1` (stereo not drawn) [compound 41]: the IC50 was found to be 5000 nM.
Consider `O=C(NCCO)c1cnc(Oc2ccc3c(c2)CCC(c2cncc(F)c2)O3)s1` (stereo not drawn) [compound 253], for which the 50% inhibitory concentration (IC50) worked out at 600 nM.
With `NC1CCN(C(=O)c2cnc(Oc3ccc4c(c3)CC[C@@H](c3ccccc3)O4)s2)C1` (stereo partly drawn) [compound 292], the IC50 was 300 nM.
In the case of `Cc1c(S(=O)(=O)NCc2cnc(Oc3ccc4c(c3)CCC(c3ccccc3)O4)s2)cnn1C(C)C` (stereo not drawn) [compound 130] it was 700 nM; in that of `CC(C)CC(CNC(=O)c1cnc(Oc2ccc3c(c2)CC[C@@H](c2ccccc2)O3)s1)C(=O)O` (stereo partly drawn) [compound 238], 300 nM; in that of `Cc1cc(C)n(CCNCc2cnc(Oc3ccc4c(c3)CCC(c3ccccc3)O4)s2)n1` (stereo not drawn) [compound 150], 800 nM.
On to `O=C(c1cnc(Oc2ccc3c(c2)CCC(c2ccccc2)O3)s1)N1CC[C@@H](O)C1` (stereo partly drawn) [compound 298], for which the IC50 turned out to be 600 nM.
Take `Cc1nn(C)c(C)c1CCC(=O)NCc1cnc(Oc2ccc3c(c2)CC[C@@H](c2ccccc2)O3)s1` [compound 297]: the IC50 came to 1100 nM.
Take `CCn1nccc1CNC(=O)c1cnc(Oc2cc3c(cc2C)OC(c2ccccc2C)CC3)s1` (stereo not drawn) [compound 359]: the half-maximal inhibitory concentration (IC50) is 1500 nM.
Regarding `CCC(C)[C@H](NC(=O)c1cnc(Oc2ccc3c(c2)CC[C@@H](c2ccccc2)O3)s1)C(=O)OC` (stereo partly drawn) [compound 183], the IC50 worked out at 1200 nM.
In the case of `Cc1noc(C)c1CCCNCc1cnc(Oc2ccc3c(c2)CCC(c2ccccc2)O3)s1` (stereo not drawn) [compound 153], the half-inhibitory concentration (IC50) stood at 500 nM.
Turning to `COC(=O)[C@@H](NC(=O)c1cnc(Oc2ccc3c(c2)CC[C@@H](c2ccccc2)O3)s1)C(C)(C)C` [compound 220], the IC50 turned out to be 600 nM.
For `NC1C[C@@H]1NC(=O)c1cnc(Oc2ccc3c(c2)CC[C@@H](c2ccccc2)O3)s1` (stereo partly drawn) [compound 284, hydrochloride], the IC50 was 200 nM.

(Values after patent US20140243292A1, “SUBSITUTED 2-(CHROMAN-6-YLOXYL)-THIAZOLES AND THEIR USE AS PHARMACEUTICALS” (Sanofi, priority 2011, published 2014).)
